Values joined by “and” are separate entries in the source; they are usually repeats but may differ in a detail not shown here. Identical values can stand only once.
What was measured:
[1] = target: T1, CDK1 (Homo sapiens, UniProt P06493); assay: CDK-1 kinase screening assay (33P-ATP FlashPlate); format: biochemical; conditions: human CDK1 with cyclin B; 10 μM ATP; 1 hr at 30° C
T1 construct: purchased New England Biolabs, Beverly, Mass; 6020; host or cells: insect cells

[2] = target: T2, VEGF-R2 (Rattus norvegicus, UniProt O08775); assay: VEGF-R2 kinase screening assay (33P-ATP FlashPlate); format: biochemical; conditions: rat VEGF-R2 kinase domain; 10 μM ATP; 1 hr at 30° C;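 also: Read-out is ³³P incorporation from ³³P-γ-ATP into biotinylated peptide substrate captured on streptavidin FlashPlate, counted by scintillation, 1% DMSO final, inhibition scaled between per-plate maximum and minimum signals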
T2 construct: polyhistidine (N)
T2 sequence (O08775 786-1343): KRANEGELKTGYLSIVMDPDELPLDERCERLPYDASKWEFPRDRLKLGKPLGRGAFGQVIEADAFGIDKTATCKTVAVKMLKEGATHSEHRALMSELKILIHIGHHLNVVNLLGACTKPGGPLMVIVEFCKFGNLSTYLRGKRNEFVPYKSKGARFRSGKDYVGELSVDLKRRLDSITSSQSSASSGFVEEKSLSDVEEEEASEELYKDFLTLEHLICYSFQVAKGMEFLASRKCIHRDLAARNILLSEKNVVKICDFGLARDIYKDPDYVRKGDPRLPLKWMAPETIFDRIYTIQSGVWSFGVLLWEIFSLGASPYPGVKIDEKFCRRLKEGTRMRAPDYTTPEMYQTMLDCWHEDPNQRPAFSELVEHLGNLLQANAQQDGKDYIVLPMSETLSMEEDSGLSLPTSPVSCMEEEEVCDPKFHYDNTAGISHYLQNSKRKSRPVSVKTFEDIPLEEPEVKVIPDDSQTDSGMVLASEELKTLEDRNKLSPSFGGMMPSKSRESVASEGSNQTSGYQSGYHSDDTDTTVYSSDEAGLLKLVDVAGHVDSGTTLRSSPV

[3] = target: T3, HER2 (Homo sapiens, UniProt P04626); assay: HER2 kinase screening assay (33P-ATP FlashPlate); format: biochemical; conditions: GST-HIS6 HER-2 aa 679 to 1255; 10 μM ATP; 1 hr at 30° C;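 also: Biotin-poly(GT) 4:1 peptide captured on streptavidin FlashPlate, 33P transfer from γ-ATP read by scintillation counting, lower incorporation means inhibition, 1% DMSO final, 100 µL reaction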
T3 construct: GST (Glutathione-S-Transferase) (N); HIS6 (N); thrombin cleavage site (N); purchased Proqinase, Freiburg, Germany
T3 sequence (P04626 679-1255): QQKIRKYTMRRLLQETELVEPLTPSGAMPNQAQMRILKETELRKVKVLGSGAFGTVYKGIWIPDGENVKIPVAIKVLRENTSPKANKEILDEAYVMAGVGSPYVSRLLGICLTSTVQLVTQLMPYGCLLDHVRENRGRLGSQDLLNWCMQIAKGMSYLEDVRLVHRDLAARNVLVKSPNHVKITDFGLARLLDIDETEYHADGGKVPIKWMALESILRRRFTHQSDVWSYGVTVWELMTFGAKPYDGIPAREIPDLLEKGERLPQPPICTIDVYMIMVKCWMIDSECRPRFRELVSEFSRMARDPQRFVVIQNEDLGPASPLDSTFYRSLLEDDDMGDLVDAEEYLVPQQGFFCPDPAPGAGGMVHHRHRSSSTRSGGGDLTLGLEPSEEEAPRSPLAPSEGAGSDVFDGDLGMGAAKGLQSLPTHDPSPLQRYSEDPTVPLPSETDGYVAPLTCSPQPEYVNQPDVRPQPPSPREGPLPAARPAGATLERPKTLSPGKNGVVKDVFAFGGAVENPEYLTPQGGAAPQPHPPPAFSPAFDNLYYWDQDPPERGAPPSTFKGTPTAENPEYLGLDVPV

[4] = target: T4, Aurora-A (Mus musculus, UniProt P97477); assay: Aurora-A kinase screening assay (33P-ATP FlashPlate); format: biochemical; conditions: 10 μM ATP, 1 hr at 30° C;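 also: His-tagged mouse Aurora-A phosphorylating a biotinylated peptide captured on streptavidin plates, read as 33P uptake by scintillation counting, 1% DMSO, inhibition scaled between per-plate maximum and minimum signals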
T4 construct: polyhistidine (N)
T4 sequence (P97477 1-395): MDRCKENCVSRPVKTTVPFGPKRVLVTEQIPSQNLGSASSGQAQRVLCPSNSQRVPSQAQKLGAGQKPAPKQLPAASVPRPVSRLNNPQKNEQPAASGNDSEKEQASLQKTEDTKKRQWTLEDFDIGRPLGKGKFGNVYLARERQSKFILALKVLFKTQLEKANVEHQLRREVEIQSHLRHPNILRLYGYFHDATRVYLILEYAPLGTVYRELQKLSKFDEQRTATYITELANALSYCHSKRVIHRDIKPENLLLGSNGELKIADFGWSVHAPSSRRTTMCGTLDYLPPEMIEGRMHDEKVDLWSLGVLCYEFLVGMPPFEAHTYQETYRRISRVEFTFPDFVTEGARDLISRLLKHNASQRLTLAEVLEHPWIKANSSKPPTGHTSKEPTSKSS

[5] = target: T5, c-Src kinase (Homo sapiens, UniProt P12931); assay: c-Src Kinase Assay; format: biochemical; conditions: 5 μM ATP
T5 construct: purchased Upstate Biotechnology, Lake Placid, N.Y
T5 sequence (P12931 whole entry): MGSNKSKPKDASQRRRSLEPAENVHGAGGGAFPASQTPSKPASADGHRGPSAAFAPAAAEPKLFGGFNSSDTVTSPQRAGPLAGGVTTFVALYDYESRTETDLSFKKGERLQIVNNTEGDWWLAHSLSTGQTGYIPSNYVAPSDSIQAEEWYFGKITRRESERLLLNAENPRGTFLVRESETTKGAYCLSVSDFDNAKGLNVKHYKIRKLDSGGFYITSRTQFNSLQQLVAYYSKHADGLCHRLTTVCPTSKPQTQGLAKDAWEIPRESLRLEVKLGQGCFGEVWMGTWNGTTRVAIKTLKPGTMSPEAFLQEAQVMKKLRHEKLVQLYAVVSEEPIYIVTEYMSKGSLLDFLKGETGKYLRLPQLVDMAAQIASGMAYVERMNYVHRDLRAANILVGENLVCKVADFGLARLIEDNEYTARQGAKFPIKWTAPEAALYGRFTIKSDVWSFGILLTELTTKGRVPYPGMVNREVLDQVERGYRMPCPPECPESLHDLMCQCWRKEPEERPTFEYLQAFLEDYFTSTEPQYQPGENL
Protocol: A mixture of a 10× kinase buffer (80 mM MOPS at pH 7.0, 2 mM EDTA and 100 mM Magnesium Chloride), ATP (5 μM final from a 10 mM stock), a Cdc2 peptide […] (100 μM final from a 2.5 mM stock), γ-^33P ATP (10 μCi/μL stock) and water (for a total of 20 μL/well) was added to each well of a Streptavidin Flashplate.
Test compound in 100% DMSO (0.5 μL) was added to the appropriate wells. Diluted c-Src kinase (human) (Accession Number SWISS-PROT P12931) (Upstate Biotechnology, Lake Placid, N.Y.) (diluted in a buffer consisting of 20 mM MOPS at pH 7.0, 1 mM EDTA, β-mercaptoethanol (0.1%), Brij-35 (0.01%), glycerol (5%), and 1 mg/mL bovine serum albumin) (2.5 μL) was added to the wells to initiate the reactions. The reaction plates were incubated at 30° C. for 40 min. The reaction was terminated by the addition of a 3% phosphoric acid solution (5 μL). The reaction product (10 μL) was spotted onto a P30 filtermat and washed for 5 minutes in phosphoric acid (75 mM). The wash sequence was repeated two more times, followed with one final wash in methanol. The plates were then dried, sealed and read on the TopCount scintillation counter after adding 30 μL scintillation fluid.
(§1) A maximum and minimum signal for the assay was determined on each plate. The percent inhibition of a test compound was calculated according to the formula: […]
For a series of test concentrations, the IC50 was derived by graphing percent inhibition against the log of the concentrations tested for a given compound with results shown in Table 2
(§2) For compounds with multiple values, each value represents a separate assay result.

[6] = target: T6, Lyn kinase (Homo sapiens, UniProt P07948); assay: Lyn Kinase Assay; format: biochemical; conditions: 5 μM ATP
T6 construct: purchased Upstate Biotechnology, Lake Placid, N.Y
T6 sequence (P07948 whole entry): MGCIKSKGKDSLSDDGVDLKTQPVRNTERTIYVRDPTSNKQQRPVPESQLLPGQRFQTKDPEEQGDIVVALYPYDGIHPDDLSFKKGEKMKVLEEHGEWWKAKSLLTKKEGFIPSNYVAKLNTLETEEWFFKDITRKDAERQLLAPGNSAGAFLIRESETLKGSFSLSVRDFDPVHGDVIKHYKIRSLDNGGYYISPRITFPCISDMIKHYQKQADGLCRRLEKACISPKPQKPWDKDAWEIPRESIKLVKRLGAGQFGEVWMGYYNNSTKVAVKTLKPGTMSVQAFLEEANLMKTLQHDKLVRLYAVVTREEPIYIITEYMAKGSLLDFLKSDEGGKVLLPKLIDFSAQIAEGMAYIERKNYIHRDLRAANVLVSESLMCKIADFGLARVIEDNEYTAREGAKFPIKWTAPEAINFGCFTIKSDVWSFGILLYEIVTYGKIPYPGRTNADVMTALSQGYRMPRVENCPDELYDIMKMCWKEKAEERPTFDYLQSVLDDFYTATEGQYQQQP
Protocol: Test compound in 100% DMSO (0.5 μL) was added to the appropriate wells. Diluted Lyn kinase (human) (Accession Number EMBL M16038) (Upstate Biotechnology, Lake Placid, N.Y.) (diluted in a buffer consisting of 50 mM Tris at pH 7.5, 0.1 mM EGTA, Sodium Vanadate (0.1 mM), β-mercaptoethanol (0.1%) and 1 mg/mL bovine serum albumin) (2.5 μL) was added to the wells to initiate the reactions.
The reaction plates were incubated at 30° C. for 40 min. The reaction was terminated by the addition of a 3% phosphoric acid solution (5 μL). The reaction product (10 μL) was spotted onto a P30 filtermat and washed for 5 minutes in phosphoric acid (75 mM). The wash sequence was repeated two more times, followed with one final wash in methanol. The plates were then dried, sealed and read on the TopCount scintillation counter after adding 30 μL scintillation fluid.
as §1
For a series of test concentrations, the IC50 was derived by graphing percent inhibition against the log of the concentrations tested for a given compound with results shown in Table 3
as §2

[7] = system: HeLa cervical adenocarcinoma; assay: Cell Proliferation Inhibition Assay (14C-thymidine incorporation), HeLa; format: cell-based; conditions: Homo sapiens, HeLa cells;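 also: test compound in DMSO added to cells seeded in scintillating 96-well plates, DMSO-only wells as control, uptake of methyl 14C-thymidine into new DNA counted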
[8] = system: A375 malignant melanoma; assay: Cell Proliferation Inhibition Assay (14C-thymidine incorporation), A375; format: cell-based; conditions: Homo sapiens, A-375, A375 cells;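 also: proliferation measured by radiolabelled thymidine uptake into new DNA, counted in scintillating 96-well plates, compound-treated wells compared with DMSO-only control wells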
[9] = system: HCT-116 colon carcinoma; assay: Cell Proliferation Inhibition Assay (14C-thymidine incorporation), HCT-116; format: cell-based;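 also: proliferation measured as methyl 14C-thymidine uptake into new DNA, counted in 96-well scintillating microplates, compared with DMSO-only control wells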
[10] = target: T7, RET (Homo sapiens, UniProt P07949); assay: RET kinase screening assay (33P-ATP FlashPlate); format: biochemical; conditions: human RET kinase domain; 10 μM ATP; 1 hr at 30° C;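 also: biotinylated peptide substrate captured on streptavidin FlashPlate, 33P phosphate transfer read by scintillation counting, 1% DMSO, lower incorporation means inhibition, percent relative to per-plate maximum and minimum signals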
T7 construct: polyhistidine (N)
T7 sequence (P07949 658-1114 limits assumed): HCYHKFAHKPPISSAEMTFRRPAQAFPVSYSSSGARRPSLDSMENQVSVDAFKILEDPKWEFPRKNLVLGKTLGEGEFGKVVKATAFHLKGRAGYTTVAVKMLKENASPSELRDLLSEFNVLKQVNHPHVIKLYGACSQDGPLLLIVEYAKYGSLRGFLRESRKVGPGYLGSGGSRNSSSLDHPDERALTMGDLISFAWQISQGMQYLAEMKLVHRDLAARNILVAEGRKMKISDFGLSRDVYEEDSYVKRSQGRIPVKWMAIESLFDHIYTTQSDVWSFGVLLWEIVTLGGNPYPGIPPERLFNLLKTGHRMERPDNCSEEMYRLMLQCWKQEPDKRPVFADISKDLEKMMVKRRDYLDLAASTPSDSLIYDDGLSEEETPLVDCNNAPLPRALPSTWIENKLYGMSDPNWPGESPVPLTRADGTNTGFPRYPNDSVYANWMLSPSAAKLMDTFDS

[11] = Homo sapiens, HCT-116, HCT-116 cells

T1 sequence (P06493 whole entry): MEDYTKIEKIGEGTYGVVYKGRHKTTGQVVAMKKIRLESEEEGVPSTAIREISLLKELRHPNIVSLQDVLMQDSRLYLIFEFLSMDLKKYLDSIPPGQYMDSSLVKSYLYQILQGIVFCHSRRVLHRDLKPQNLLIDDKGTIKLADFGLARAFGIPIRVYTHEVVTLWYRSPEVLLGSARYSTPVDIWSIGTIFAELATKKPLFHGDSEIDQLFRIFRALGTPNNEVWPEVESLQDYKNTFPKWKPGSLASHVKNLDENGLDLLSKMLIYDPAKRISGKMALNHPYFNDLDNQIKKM
T1 sequence (P14635 whole entry partner): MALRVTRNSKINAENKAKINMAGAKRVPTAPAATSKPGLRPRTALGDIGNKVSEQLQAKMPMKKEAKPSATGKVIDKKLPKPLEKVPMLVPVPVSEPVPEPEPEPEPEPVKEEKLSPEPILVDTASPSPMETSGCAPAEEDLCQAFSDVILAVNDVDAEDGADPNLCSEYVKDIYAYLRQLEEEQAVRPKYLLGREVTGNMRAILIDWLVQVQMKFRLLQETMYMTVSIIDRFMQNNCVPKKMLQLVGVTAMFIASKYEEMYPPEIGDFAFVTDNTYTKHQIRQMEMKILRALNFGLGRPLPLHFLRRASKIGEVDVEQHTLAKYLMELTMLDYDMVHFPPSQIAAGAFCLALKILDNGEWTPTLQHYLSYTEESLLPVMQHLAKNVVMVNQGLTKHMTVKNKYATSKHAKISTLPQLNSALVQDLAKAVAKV

IC50 [1]	IC50 [2]	IC50 [3] [µM]	IC50 [4]	IC50 [5] [nM]	IC50 [6] [nM]	IC50 ([7]; HeLa) [nM]	IC50 [8] [nM]	IC50 [9, 11] [nM]	IC50 ([9]; HCT-116 cells) [nM]	IC50 [10] [µM]	Compound	IC50 [7] [nM]	IC50 ([9]; Homo sapiens, HCT-116 cells) [nM]
8.55 nM	1080 nM	> 100	0.0415 µM	2.82	5	401	297	376	–	–	c1ccc2c(-c3cnc4[nH]nc(-c5nc6cc(N7CCOCC7)ccc6[nH]5)c4c3)cncc2c1 [Cpd 51, 4-[3-(5-morpholin-4-yl-1H-benzoimidazol-2-yl)-1H-pyrazolo[3,4-b]pyridin-5-yl]-isoquinoline]	–	–
6.57 nM	–	–	–	97.9	> 100000	698	467	348	–	–	Fc1ccc2nc(-c3n[nH]c4ncc(-c5cccnc5)cc34)[nH]c2c1 [Cpd 92, 3-(6-fluoro-1H-benzoimidazol-2-yl)-5-pyridin-3-yl-1H-pyrazolo[3,4-b]pyridine]	–	–
177 nM and 343 nM	1880 nM and 1570 nM	> 100	3.26 µM and 4.64 µM	143	578	–	–	33.6	63.5	–	COCc1cccc2[nH]c(-c3n[nH]c4ncc(-c5cncc(CN6CCOCC6)c5)cc34)nc12 [Cpd 54, 3-(4-methoxymethyl-1H-benzoimidazol-2-yl)-5-(5-morpholin-4-ylmethyl-pyridin-3-yl)-1H-pyrazolo[3,4-b]pyridine]	–	–
124 nM	1600 nM	> 100	3.75 µM	143	578	1230	330	186	–	–	COCc1cccc2[nH]c(-c3n[nH]c4ncc(-c5cncc(CN(C)C)c5)cc34)nc12 [Cpd 55, {5-[3-(4-methoxymethyl-1H-benzoimidazol-2-yl)-1H-pyrazolo[3,4-b]pyridin-5-yl]-pyridin-3-ylmethyl}-dimethyl-amine]	–	–
2.74 nM	316 nM	–	0.279 µM	56.7	69.4	418	371	299	–	–	COc1ccc2nc(-c3n[nH]c4ncc(-c5cccnc5)cc34)[nH]c2c1 [Cpd 90, 3-(6-methoxy-1H-benzoimidazol-2-yl)-5-pyridin-3-yl-1H-pyrazolo[3,4-b]pyridine]	–	–
13 nM	349 nM	> 10	3.18 µM	183	–	1620	1610	643	–	> 10	COCc1cccc2[nH]c(-c3n[nH]c4ncc(-c5cncc(CNCCO)c5)cc34)nc12 [Cpd 77, 2-({5-[3-(4-methoxymethyl-1H-benzoimidazol-2-yl)-1H-pyrazolo[3,4-b]pyridin-5-yl]-pyridin-3-ylmethyl}-amino)-ethanol]	–	–
231 nM	> 1000 nM	~100	0.248 µM	92.5	–	1220	265	161	–	> 100	COCc1cccc2[nH]c(-c3n[nH]c4ncc(-c5cncc(C=O)c5)cc34)nc12 [Cpd 41, 5-[3-(4-methoxymethyl-1H-benzoimidazol-2-yl)-1H-pyrazolo[3,4-b]pyridin-5-yl]-pyridine-3-carbaldehyde]	–	–
42.7 nM	> 10000 nM	> 10	4.75 µM	823	–	2550	678	412	–	> 10	COCc1cccc2[nH]c(-c3n[nH]c4ncc(-c5cncc(CN)c5)cc34)nc12 [Cpd 73, C-{5-[3-(4-methoxymethyl-1H-benzoimidazol-2-yl)-1H-pyrazolo[3,4-b]pyridin-5-yl]-pyridin-3-yl}-methylamine]	–	–
63.6 nM	1640 nM	> 10	4.5 µM	378	–	594	205	163	–	> 10	COCCNCc1cncc(-c2cnc3[nH]nc(-c4nc5c(COC)cccc5[nH]4)c3c2)c1 [Cpd 75, (2-methoxy-ethyl)-{5-[3-(4-methoxymethyl-1H-benzoimidazol-2-yl)-1H-pyrazolo[3,4-b]pyridin-5-yl]-pyridin-3-ylmethyl}-amine]	–	–
551 nM	284 nM	~100	6.82 µM	954	–	4780	459	386	–	~100	COCc1cccc2[nH]c(-c3n[nH]c4ncc(-c5cncc(CNCCN6CCOCC6)c5)cc34)nc12 [Cpd 74, {5-[3-(4-methoxymethyl-1H-benzoimidazol-2-yl)-1H-pyrazolo[3,4-b]pyridin-5-yl]-pyridin-3-ylmethyl}-(2-morpholin-4-yl-ethyl)-amine]	–	–

Compound	IC50 [1]	IC50 [2]	IC50 [3] [µM]	IC50 [4]	IC50 [5] [nM]	IC50 [6] [nM]	IC50 ([7]; HeLa) [nM]	IC50 [8] [nM]	IC50 [9, 11] [nM]	IC50 ([9]; HCT-116 cells) [nM]	IC50 [10] [µM]	IC50 [7] [nM]	IC50 ([9]; Homo sapiens, HCT-116 cells) [nM]
CN1CCN(c2ccc3[nH]c(-c4n[nH]c5ncc(-c6cncc7ccccc67)cc45)nc3c2)CC1 [Cpd 31, 4-{3-[5-(4-methyl-piperazin-1-yl)-1H-benzoimidazol-2-yl]-1H-pyrazolo[3,4-b]pyridin-5-yl}-isoquinoline]	13.6 nM	–	6.51	–	4.21	3.87	–	165	–	–	–	455	355
CNCc1cncc(-c2cnc3[nH]nc(-c4nc5ccc(OC)cc5[nH]4)c3c2)c1 [Cpd 97, {5-[3-(6-methoxy-1H-benzoimidazol-2-yl)-1H-pyrazolo[3,4-b]pyridin-5-yl]-pyridin-3-ylmethyl}-methyl-amine]	0.9 nM	–	1.45	–	16.4	4.29	–	164	–	–	–	61.4	61.5
